Data published in US4352792A, “3-Alkoxyflavone antiviral agents” (priority 1979, dated 1982).
≈ marks a conversion by molar mass, not a printed value. Like-named read-outs stand apart in the source and are kept apart here.

What was measured:
rhinovirus type 26 = experiment: in vitro antiviral spectrum; format: cell-based; details: Enterovirus; rhinovirus type 26; read-out: Minimum inhibitory concentration
rhinovirus type 13 = experiment: in vitro antiviral spectrum; format: cell-based; details: Enterovirus; rhinovirus type 13; read-out: Minimum inhibitory concentration
HeLa cell = HeLa cell growth; format: cell-based; details: 0.5 to 2 μg/ml
rhinovirus type 21 = experiment: in vitro antiviral spectrum; format: cell-based; details: Enterovirus; rhinovirus type 21; read-out: Minimum inhibitory concentration
rhinovirus type 39 = experiment: in vitro antiviral spectrum; format: cell-based; details: Enterovirus; rhinovirus type 39; read-out: Minimum inhibitory concentration
rhinovirus type 34 = experiment: in vitro antiviral spectrum; format: cell-based; details: Enterovirus; rhinovirus type 34; read-out: Minimum inhibitory concentration
rhinovirus type 36 = experiment: in vitro antiviral spectrum; format: cell-based; details: Enterovirus; rhinovirus type 36; read-out: Minimum inhibitory concentration
rhinovirus type 47 = experiment: in vitro antiviral spectrum; format: cell-based; details: Enterovirus; rhinovirus type 47; read-out: Minimum inhibitory concentration
Coxsackie virus A21 = experiment: in vitro antiviral spectrum; format: cell-based; details: read-out: Minimum inhibitory concentration
rhinovirus HGP = experiment: Inhibition of viral cytopathogenic effect in HeLa cells (rhinovirus HGP); format: cell-based; details: Enterovirus, HeLa, 48 h, read-out: IC50 rhinovirus HGP
Coxsackie virus B1 [1] = experiment: Anti-Coxsackie virus activity, lethal infection in mice; details: Mus musculus, 504 h, read-out: Survival
rhinovirus type 50 = experiment: in vitro antiviral spectrum; format: cell-based; details: Enterovirus; rhinovirus type 50; read-out: Minimum inhibitory concentration
rhinovirus type 16 = experiment: in vitro antiviral spectrum; format: cell-based; details: Enterovirus; rhinovirus type 16; read-out: Minimum inhibitory concentration
rhinovirus type 4 = experiment: in vitro antiviral spectrum; format: cell-based; details: Enterovirus; rhinovirus type 4; read-out: Minimum inhibitory concentration
ECHO virus type 9 = experiment: in vitro antiviral spectrum; format: cell-based; details: read-out: Minimum inhibitory concentration
ECHO virus type 12 = experiment: in vitro antiviral spectrum; format: cell-based; details: read-out: Minimum inhibitory concentration
rhinovirus type 55 = experiment: in vitro antiviral spectrum; format: cell-based; details: Enterovirus; rhinovirus type 55; read-out: Minimum inhibitory concentration
rhinovirus type 44 = experiment: in vitro antiviral spectrum; format: cell-based; details: Enterovirus; rhinovirus type 44; read-out: Minimum inhibitory concentration
acute toxicity in mice = details: mouse, in vivo, day 21
poliovirus type 1 = experiment: microbe, parasite or virus in culture; format: cell-based; details: Enterovirus C, read-out: Minimum inhibitory concentration
rhinovirus type 17 = experiment: in vitro antiviral spectrum; format: cell-based; details: Enterovirus; rhinovirus type 17; read-out: Minimum inhibitory concentration
ECHO virus type 11 = experiment: in vitro antiviral spectrum; format: cell-based; details: read-out: Minimum inhibitory concentration
rhinovirus type 32 = experiment: in vitro antiviral spectrum; format: cell-based; details: Enterovirus; rhinovirus type 32; read-out: Minimum inhibitory concentration
ECHO virus type 19 = experiment: in vitro antiviral spectrum; format: cell-based; details: read-out: Minimum inhibitory concentration
rhinovirus type 2 = experiment: in vitro antiviral spectrum; format: cell-based; details: Enterovirus; rhinovirus type 2; read-out: Minimum inhibitory concentration
rhinovirus type 14 = experiment: in vitro antiviral spectrum; format: cell-based; details: Enterovirus; rhinovirus type 14; read-out: Minimum inhibitory concentration
[2] = system: rhinoviruses HGP, 1A and Coxsackie virus B1; experiment: Inhibition of viral replication in HeLa cells; format: cell-based; details: concentrations of 0.5 to 2 μg/ml, HeLa cells (FIG. 1)
Coxsackie virus B1 [3] = experiment: Inhibition of viral cytopathogenic effect in HeLa cells (Coxsackie virus B1); format: cell-based
rhinovirus type 53 = experiment: in vitro antiviral spectrum; format: cell-based; details: Enterovirus; rhinovirus type 53; read-out: Minimum inhibitory concentration
rhinovirus type 3 = experiment: in vitro antiviral spectrum; format: cell-based; details: Enterovirus; rhinovirus type 3; read-out: Minimum inhibitory concentration
rhinovirus type 1A = experiment: in vitro antiviral spectrum; format: cell-based; details: Enterovirus; rhinovirus type 1A; read-out: Minimum inhibitory concentration
rhinovirus type 9 = experiment: in vitro antiviral spectrum; format: cell-based; details: Enterovirus; rhinovirus type 9; read-out: Minimum inhibitory concentration
rhinovirus type 30 = experiment: in vitro antiviral spectrum; format: cell-based; details: Enterovirus; rhinovirus type 30; read-out: Minimum inhibitory concentration

## COc1cc(O)c2c(=O)c(OC)c(-c3ccc(O)c(OC)c3)oc2c1 [4',5-dihydroxy-3,3',7-trimethoxyflavone]
Rhinovirus type 26
  MIC: 0.3 µg/mL (≈ 0.871 µM)
Rhinovirus type 13
  MIC: 0.3 to 1 µg/mL (≈ 0.871 to 2.9 µM)
HeLa cell
  effect on HeLa cell growth: HeLa cell growth is not affected
Rhinovirus type 21
  MIC: 0.3 µg/mL (≈ 0.871 µM)
Rhinovirus type 39
  MIC: 0.1 µg/mL (≈ 0.29 µM)
Rhinovirus type 34
  MIC: 0.3 µg/mL (≈ 0.871 µM)
Rhinovirus type 36
  MIC: 0.3 µg/mL (≈ 0.871 µM)
Rhinovirus type 47
  MIC: 0.3 µg/mL (≈ 0.871 µM)
Coxsackie virus A21
  MIC: 0.1 to 0.3 µg/mL (≈ 0.29 to 0.871 µM)
Rhinovirus HGP
  IC50: 0.1 µg/mL (≈ 0.29 µM)
Coxsackie virus B1 [1]; ip
  responders at 10 mg/kg: 10%
  responders at 20 mg/kg: 20%
Coxsackie virus B1 [1]; po
  responders at 20 mg/kg: 10%
  responders at 40 mg/kg: 30%
Rhinovirus type 50
  MIC: 0.3 µg/mL (≈ 0.871 µM)
Rhinovirus type 16
  MIC: 0.3 µg/mL (≈ 0.871 µM)
Rhinovirus type 4
  MIC: 1 µg/mL (≈ 2.9 µM)
ECHO virus type 9
  MIC: 0.1 to 0.3 µg/mL (≈ 0.29 to 0.871 µM)
ECHO virus type 12
  MIC: 0.1 to 0.3 µg/mL (≈ 0.29 to 0.871 µM)
Rhinovirus type 55
  MIC: 0.3 µg/mL (≈ 0.871 µM)
Rhinovirus type 44
  MIC: 0.05 to 0.5 µg/mL (≈ 0.145 to 1.45 µM)
Acute toxicity in mice; ip, single dose i.p., dissolved in dimethyl sulfoxide, read-out: LD50 i.p.
  LD50 at 504 h: > 1000 mg/kg
Acute toxicity in mice; po, single dose p.o., suspended in 0.5% carboxymethylcellulose, read-out: LD50 p.o.
  LD50 at 504 h: > 5000 mg/kg
Poliovirus type 1
  MIC: 0.1 to 0.3 µg/mL (≈ 0.29 to 0.871 µM)
Rhinovirus type 17
  MIC: 0.3 µg/mL (≈ 0.871 µM)
ECHO virus type 11
  MIC: 0.1 to 0.3 µg/mL (≈ 0.29 to 0.871 µM)
Rhinovirus type 32
  MIC: 0.1 µg/mL (≈ 0.29 µM)
ECHO virus type 19
  MIC: 0.1 to 0.3 µg/mL (≈ 0.29 to 0.871 µM)
Rhinovirus type 2
  MIC: 0.1 µg/mL (≈ 0.29 µM)
Rhinovirus type 14
  MIC: 0.1 µg/mL (≈ 0.29 µM)
[2]
  reduction of viral replication: reduces the viral replication quite considerably
Coxsackie virus B1 [3]; Coxsackie virus B1, read-out: Minimum inhibitory concentration
  MIC: 0.1 to 0.2 µg/mL (≈ 0.29 to 0.581 µM)
Coxsackie virus B1 [3]; HeLa, 24 h, read-out: IC50 Coxsackie virus B1
  IC50: 0.1 to 0.2 µg/mL (≈ 0.29 to 0.581 µM)
Rhinovirus type 53
  MIC: 0.1 µg/mL (≈ 0.29 µM)
Rhinovirus type 3
  MIC: 0.1 µg/mL (≈ 0.29 µM)
Rhinovirus type 1A
  MIC: 0.03 µg/mL (≈ 0.0871 µM)
Rhinovirus type 9
  MIC: 0.1 µg/mL (≈ 0.29 µM)
Rhinovirus type 30
  MIC: 0.03 to 0.1 µg/mL (≈ 0.0871 to 0.29 µM)
